Test results: PubChem BioAssay (NCI)
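Growth conditions: 96-well plates. Treatment: test compound, 48 hours, 5 concentrations. Analysis: linear interpolation between bracketing concentrations; unreached endpoints set to highest concentration. TGI: concentration producing complete growth inhibition.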

Assays:
Test in all cases: NCI-60 cell line screen, 48 h
[1] = test system: K-562 leukemia
[2] = test system: SW-620 colon
[3] = test system: M14 melanoma
[4] = test system: LXFL 529 NSCLC
[5] = test system: SF-295 CNS
[6] = test system: DMS 273 small cell lung
[7] = test system: SK-MEL-5 melanoma
[8] = test system: SK-MEL-28 melanoma
[9] = test system: IGROV1 ovarian
[10] = test system: MALME-3M melanoma
[11] = test system: SNB-78 CNS
[12] = test system: RPMI-8226 leukemia
[13] = test system: NCI-H522 lung
[14] = test system: HL-60(TB) leukemia
[15] = test system: UACC-257 melanoma
[16] = test system: UO-31 renal
[17] = test system: TK-10 renal
[18] = test system: KM12 colon
[19] = test system: HOP-18 NSCLC
[20] = test system: KM20L2 colon
[21] = test system: CAKI-1 renal
[22] = test system: COLO 205 colon
[23] = test system: OVCAR-4 ovarian
[24] = test system: HT29 colon
[25] = test system: SNB-19 CNS
[26] = test system: 786-0 renal
[27] = test system: HCT-116 colon
[28] = test system: SF-268 CNS
[29] = test system: NCI-H460 lung
[30] = test system: OVCAR-5 ovarian
[31] = test system: NCI-H23 lung
[32] = test system: ACHN renal
[33] = test system: NCI-H226 lung
[34] = test system: OVCAR-8 ovarian
[35] = test system: SN12C renal
[36] = test system: SNB-75 CNS
[37] = test system: SF-539 CNS
[38] = test system: OVCAR-3 ovarian
[39] = test system: U251 CNS
[40] = test system: A549 NSCLC
[41] = test system: RXF 393 renal
[42] = test system: UACC-62 melanoma
[43] = test system: DLD-1 colon
[44] = test system: SK-MEL-2 melanoma
[45] = test system: EKVX NSCLC
[46] = test system: HOP-92 NSCLC
[47] = test system: CCRF-CEM leukemia
[48] = test system: MOLT-4 leukemia
[49] = test system: M19-MEL melanoma
[50] = test system: SK-OV-3 ovarian
[51] = test system: HCT-15 colon
[52] = test system: LOX IMVI melanoma
[53] = test system: HCC-2998 colon
[54] = test system: HOP-62 NSCLC
[55] = test system: SR leukemia
[56] = test system: DMS 114 small cell lung
[57] = test system: RXF-631 renal
[58] = test system: A498 renal

Measured: TGI

O=C(O)C1=NNC(C(=O)O)=NN1
not listed: [53] | [54] | [55] | [56] | [57] | [58]
> 100 µM: all other assays above

N#CCN1CCOCCOCCN(CC#N)CCOCCOCC1
not listed: [6] | [13] | [18] | [39] | [44] | [50]
> 100 µM: all other assays above

Cc1c(C(=O)/C=C/c2ccccc2Cl)[n+](=O)c2ccccc2n1[O-]
51.5 µM: [55]
26.9 µM: [58]
20.1 µM: [56]
25.3 µM: [26]
29.1 µM: [49]
28.5 µM: [31]
29.2 µM: [10]
33.2 µM: [16]
62.8 µM: [14]
44.3 µM: [11]
26.5 µM: [1]
36.5 µM: [57]
31 µM: [25]
26.1 µM: [34]
21.7 µM: [51]
28.4 µM: [35]
22.5 µM: [27]
33.8 µM: [24]
27.9 µM: [6]
24 µM: [2]
28.8 µM: [22] | [33]
27.3 µM: [18] | [44]
19.8 µM: [43]
35.7 µM: [30] | [50]
28.2 µM: [19]
29.4 µM: [37] | [38]
28 µM: [5]
33.3 µM: [40]
29 µM: [3]
31.6 µM: [8] | [9]
34.2 µM: [54]
30.5 µM: [36]
31.9 µM: [7] | [32]
27.2 µM: [15]
27.4 µM: [39]
42 µM: [48]
10.6 µM: [21]
25.8 µM: [23]
36.1 µM: [12]
30.6 µM: [20]
28.7 µM: [46]
20 µM: [4]
31.1 µM: [45]
24.4 µM: [29]
23.3 µM: [13]

COC(=O)c1c2c(c(-c3ccccc3)c3c1-c1nc(Cl)ccc1CC3)CCc1ccc(Cl)nc1-2
not listed: [6] | [44] | [56]
> 100 µM: all other assays above
